Our source for the EC50 values is BindingDB's records for doi:10.1021/acs.jmedchem.7b00843 (Wuxi Apptec, 2017).

pEC50: −log10 of the molar value.

This experiment can be described thus: Inhibition of DLK in CD-1 mouse DRG neuron assessed as axonal protection pre-incubated for 2 hrs before NGF deprivation for 16 to 20 hrs by Campenot chamber based fluorescence assay.

Consider `CC(C)n1nc(-c2cnc(N)c(OC(F)(F)F)c2)cc1[C@H]1[C@@H]2CN(C3COC3)C[C@@H]21`, for which the pEC50 was 6.24.
Take `Nc1ncc(-c2cc([C@H]3[C@@H]4CN(C5COC5)C[C@@H]43)n(CC3CC3)n2)cc1C(F)(F)F`: the pEC50 is 6.34.

For orientation: pEC50 means the EC50 on a negative log10 scale, so that one unit is a factor of ten.
